According to patent US11028084B2, “Selective inhibitors of gentotoxic steress-induced IKK/NF-κB pathways” (Max-Delbrück-Centrum für Molekulare Medizin in der …, priority 2016, dated 2021):
“Also recorded” adds a separate entry of the source.

Tests used:
[1] = system: genotoxic stress-induced NF-κB signaling; experiment: Etoposide-induced p65 nuclear translocation, immunofluorescence / high content screening in U2OS cells; type: cell-based, human
Description: FIG. 2: U2OS cells were pre-treated and incubated with DMSO or MW01. DNA damage was induced by administration of etoposide. After 2 h cells were fixed, nuclei were stained with DAPI. p65 and phospho-H2AX, which is indicative for DNA DSB, were stained by immunofluorescence. Images were taken at a confocal Zeiss 710 LSM with a 40× oil objective.
FIG. 3: (A) U2OS cells were pre-treated with increasing concentrations of MW01 in duplicates in a 384 well plate. Then, cells were treated with etoposide, fixed and subjected to IF of p65. Spatial measurement of p65 cytosolic and nuclear localisation was used for calculation of p65 translocation rates. (B) U2OS cells were pre-treated with DMSO, MW01 and irradiated with γ-IR. After 90 min cells were lysed and subjected to SDS-PAGE/WB and EMSA. (C) Cells were pre-treated with different concentrations of MW01 as indicated, treated with γ-IR (C) or etoposide (D) and subjected to WB or EMSA, respectively. LDH in (C) represents the loading control.
Genotoxic stress was applied by ionizing irradiation of cells with a Cs137 source (0629 Irradiator, STS Braunschweig), or by inhibition of the topoisomerase II enzyme by administration of etoposide at concentrations between 20-50 μM for 2 h.
For immunofluorescence staining 0.95×10^5 cells were seeded in 6 well plates onto autoclaved cover slips. Cellular confluency dictated to beginning of the experiment (2-3 days from seeding). After conduction of experiments cells were washed with PBS and fixed with 4% PFA/double-distilled H2O (ddH2O) for 10 min at RT. Following two additional washing steps cells were incubated with a solution containing 0.12% glycine/0.2% saponin in PBS for 10 min and then blocked with a solution containing 10% FCS/0.2% saponin in PBS for 1 h. Primary antibody incubation was performed overnight at 4° C. (1:500 diluted in 0.2% saponin in PBS). The next day, cover slips were washed five times with a solution containing 0.2% saponin in PBS. Fluorophor-coupled secondary antibodies (1:1000 diluted in 0.2% saponin in PBS) were incubated for 1 h (hour) at RT. Nuclei were stained using 0.2 mg/ml DAPI in PBS for […] or by directly mounting with DAPI/Mowiol. Finally, the cover slips were washed five times with 0.2% saponin in PBS and two times with ddH2O. Confocal microscopy was performed using a Zeiss 710 LSM with a 40× or a 63× oil objective.
In order to identify specific inhibitors of the DNA damage-induced NF-κB pathway, a differential screening assay was designed. The primary screening for inhibitors of genotoxic stress-induced NF-κB signaling utilised a library of compounds from ChemBioNet and donated compounds of academic chemists. DNA damage was applied by application of etoposide. All compounds which inhibited p65 nuclear translocation were taken for subsequent counter screening. For the counter screening administration of TNFα was used to induce canonical NF-κB signaling. All substances inhibiting TNFα-induced canonical NF-κB activation were discarded from the list of potential DNA damage-pathway specific substances.

[2] = system: TNFα-induced canonical NF-κB activation; experiment: TNFα-induced p65 nuclear translocation (counter screening), U2OS cells; type: cell-based, human; conditions: different concentrations
Description: FIG. 4: (A) U2OS cells were pre-treated with increasing concentrations of MW01 in triplicates in a 384 well plate. Then, cells were treated with TNFα, fixed and subjected to IF staining of p65. Spatial measurement of p65 cytosolic and nuclear signals was used for the calculation of p65 translocation rates. (B) U2OS cells were pre-treated with MW01 at concentrations of 10 or 20 μM and stimulated with TNFα. Cell lysates were subjected to SDS-PAGE/WB. (C) HEK293 cells were pre-treated with DMSO or MW01 followed by administration of etoposide or TNFα. Cell lysates were used for EMSA.
For the activation of the canonical NF-κB pathway cells were treated with recombinant human TNFα (10 ng/ml) or IL-1β (10 ng/ml) for 20-30 min at 37° C.
For immunofluorescence staining 0.95×10^5 cells were seeded in 6 well plates onto autoclaved cover slips. Cellular confluency dictated to beginning of the experiment (2-3 days from seeding). After conduction of experiments cells were washed with PBS and fixed with 4% PFA/double-distilled H2O (ddH2O) for 10 min at RT. Following two additional washing steps cells were incubated with a solution containing 0.12% glycine/0.2% saponin in PBS for 10 min and then blocked with a solution containing 10% FCS/0.2% saponin in PBS for 1 h. Primary antibody incubation was performed overnight at 4° C. (1:500 diluted in 0.2% saponin in PBS). […]

[3] = target: T1, ATM (Homo sapiens, UniProt Q13315); experiment: Enzymatic activity of ATM in γ-irradiated HepG2 cells, WB of ATM and substrate phosphorylation; type: cell-based
T1 construct: endogenous in cells; host or cells: HepG2
T1 sequence (Q13315 whole entry): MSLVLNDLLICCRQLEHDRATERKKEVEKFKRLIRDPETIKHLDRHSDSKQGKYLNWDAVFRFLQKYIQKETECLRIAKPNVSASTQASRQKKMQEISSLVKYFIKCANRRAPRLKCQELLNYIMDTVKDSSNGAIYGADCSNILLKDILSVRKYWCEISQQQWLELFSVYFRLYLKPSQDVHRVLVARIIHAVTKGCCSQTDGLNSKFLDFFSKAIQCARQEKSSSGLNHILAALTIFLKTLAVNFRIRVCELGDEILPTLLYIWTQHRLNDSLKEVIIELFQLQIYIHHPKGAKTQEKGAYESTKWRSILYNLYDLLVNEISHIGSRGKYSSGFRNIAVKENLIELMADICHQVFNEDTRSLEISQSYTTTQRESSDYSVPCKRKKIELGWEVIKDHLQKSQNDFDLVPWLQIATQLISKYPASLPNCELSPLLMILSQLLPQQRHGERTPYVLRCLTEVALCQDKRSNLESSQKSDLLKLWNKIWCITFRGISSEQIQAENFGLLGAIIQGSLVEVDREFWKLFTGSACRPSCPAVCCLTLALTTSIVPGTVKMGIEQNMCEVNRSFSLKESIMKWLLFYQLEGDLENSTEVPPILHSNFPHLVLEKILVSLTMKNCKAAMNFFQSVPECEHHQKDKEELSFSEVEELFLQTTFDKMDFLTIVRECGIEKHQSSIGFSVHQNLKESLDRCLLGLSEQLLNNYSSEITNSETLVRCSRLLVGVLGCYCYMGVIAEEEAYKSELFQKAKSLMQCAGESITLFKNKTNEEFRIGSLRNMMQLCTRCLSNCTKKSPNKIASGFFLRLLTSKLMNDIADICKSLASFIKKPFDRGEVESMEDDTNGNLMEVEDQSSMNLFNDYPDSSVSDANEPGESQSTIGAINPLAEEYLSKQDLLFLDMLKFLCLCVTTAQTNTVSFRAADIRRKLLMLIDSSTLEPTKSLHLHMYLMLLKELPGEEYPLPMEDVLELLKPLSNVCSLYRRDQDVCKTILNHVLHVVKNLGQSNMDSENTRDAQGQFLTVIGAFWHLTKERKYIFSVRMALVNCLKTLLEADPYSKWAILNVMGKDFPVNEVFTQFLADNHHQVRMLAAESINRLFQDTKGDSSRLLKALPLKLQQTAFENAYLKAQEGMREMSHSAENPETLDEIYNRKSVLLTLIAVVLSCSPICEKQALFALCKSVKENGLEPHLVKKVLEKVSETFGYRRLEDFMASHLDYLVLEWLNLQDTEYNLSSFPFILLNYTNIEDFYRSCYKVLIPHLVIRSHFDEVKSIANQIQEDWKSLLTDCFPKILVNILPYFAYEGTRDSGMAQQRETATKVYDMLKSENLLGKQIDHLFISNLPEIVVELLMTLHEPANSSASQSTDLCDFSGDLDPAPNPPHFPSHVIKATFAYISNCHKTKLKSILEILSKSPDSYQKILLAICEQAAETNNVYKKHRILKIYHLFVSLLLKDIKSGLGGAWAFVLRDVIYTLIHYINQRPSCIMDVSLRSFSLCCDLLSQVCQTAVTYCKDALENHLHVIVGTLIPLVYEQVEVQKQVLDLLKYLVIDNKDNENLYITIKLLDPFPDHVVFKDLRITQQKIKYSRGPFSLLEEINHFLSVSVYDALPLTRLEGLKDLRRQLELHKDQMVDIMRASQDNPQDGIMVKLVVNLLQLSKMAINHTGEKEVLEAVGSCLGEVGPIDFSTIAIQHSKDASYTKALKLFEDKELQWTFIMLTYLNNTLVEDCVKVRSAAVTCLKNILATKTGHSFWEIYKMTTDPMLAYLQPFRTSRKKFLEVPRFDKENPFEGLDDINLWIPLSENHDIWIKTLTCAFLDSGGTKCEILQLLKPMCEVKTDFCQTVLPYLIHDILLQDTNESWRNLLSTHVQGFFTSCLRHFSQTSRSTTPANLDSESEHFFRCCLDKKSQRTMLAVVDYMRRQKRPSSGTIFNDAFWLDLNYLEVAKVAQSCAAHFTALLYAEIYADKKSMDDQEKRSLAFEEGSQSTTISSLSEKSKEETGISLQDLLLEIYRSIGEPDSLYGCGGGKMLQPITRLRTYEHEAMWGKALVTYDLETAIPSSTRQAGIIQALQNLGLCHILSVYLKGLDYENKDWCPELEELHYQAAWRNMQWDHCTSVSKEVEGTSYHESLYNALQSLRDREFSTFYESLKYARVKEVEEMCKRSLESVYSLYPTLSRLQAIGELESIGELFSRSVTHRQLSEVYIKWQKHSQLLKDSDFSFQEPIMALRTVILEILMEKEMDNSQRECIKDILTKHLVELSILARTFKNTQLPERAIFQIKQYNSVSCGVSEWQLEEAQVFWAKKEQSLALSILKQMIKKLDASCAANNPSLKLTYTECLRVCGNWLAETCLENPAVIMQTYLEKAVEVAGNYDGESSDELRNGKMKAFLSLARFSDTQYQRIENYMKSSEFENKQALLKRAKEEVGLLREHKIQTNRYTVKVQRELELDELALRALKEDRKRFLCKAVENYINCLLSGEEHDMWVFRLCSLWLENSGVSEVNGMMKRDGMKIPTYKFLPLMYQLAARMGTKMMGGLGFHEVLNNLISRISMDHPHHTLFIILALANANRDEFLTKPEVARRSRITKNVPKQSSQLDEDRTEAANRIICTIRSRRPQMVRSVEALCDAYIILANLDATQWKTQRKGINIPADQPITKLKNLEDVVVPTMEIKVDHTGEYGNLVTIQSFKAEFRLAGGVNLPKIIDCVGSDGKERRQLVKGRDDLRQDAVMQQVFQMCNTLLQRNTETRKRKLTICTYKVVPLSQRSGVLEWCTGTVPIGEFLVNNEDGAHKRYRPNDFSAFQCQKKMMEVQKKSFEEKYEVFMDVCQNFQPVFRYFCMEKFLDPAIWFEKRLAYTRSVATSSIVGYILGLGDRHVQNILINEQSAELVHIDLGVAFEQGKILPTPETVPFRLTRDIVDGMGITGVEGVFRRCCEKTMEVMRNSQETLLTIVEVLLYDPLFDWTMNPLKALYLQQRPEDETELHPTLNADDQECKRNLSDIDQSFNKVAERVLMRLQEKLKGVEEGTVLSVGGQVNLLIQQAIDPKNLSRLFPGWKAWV
Description: FIG. 9: HepG2 cells were pre-incubated with DMSO, MW01 (5 μM) or the ATM inhibitor Ku55933 (10 μM) and irradiated. After 60 min cells were harvested and processed. Immunochemical staining of Western blotting membranes was done using indicated antibodies.

[4] = system: HEK293 cells; experiment: Crystal violet staining (cell number), HEK293 cells; type: cell-based, human
Description: FIG. 16: (A) U2OS cells were pre-treated with DMSO or MW01 and irradiated. Cells were lysed 8 h post γ-IR and were used for western blotting and immunochemical staining. (B) HEK293 cells were pre-treated with DMSO or MW01 and irradiated. After 48 h cells were fixed and stained with crystal violet. Dissolved crystal violet was used for absorbance measurement in a visible light spectrophotometer at a wavelength of 595 nm. (C) HEK293 cells were pre-treated with DMSO or MW01 and irradiated. The percentage of viable cells within the population was calculated by exclusion of annexin V and propidium-iodide positive cells measured by flow cytometry. (D) MEF cells were pre-treated with DMSO or MW01 and irradiated. Cells were used for annexin V staining 24 h and 48 after γ-IR. Percentage of annexin V positive cell population was analysed using a flow cytometer. (E) Experiment done as shown in (D) but with HT1080 cells processed 8 h after irradiation. Statistical significance was calculated using students t-test.
For crystal violet staining, cells were washed with ice-cold PBS and fixed with 4% PFA in PBS for 15 min under a fume hood. After washing with PBS, cells were stained with 0.1% crystal violet for 20 min at RT. […] Then, 0.25 ml of stain was diluted 1:4 in ddH2O and absorbance was measured at 595 nm using a spectrophotometer against 10% acetic acid as blank.

[5] = HepG2, γ-irradiation, 60 min, MW01 5 μM, Ku55933 10 μM

SMILES: COc1ccc2c(c1OC)c(=O)n1c3ccc(O)cc3c3ccnc2c31 [MW01, 12-hydroxy-6,7-dimethoxy-8H-benzo[c]indolo[3,2,1-ij][1,5]naphthyridin-8-one]
- IC50 ([1]; Homo sapiens, U2OS, etoposide-induced p65 nuclear translocation, high content screening): 460 nM
- calculated Hill coefficient ([1]; IC50 determination assay): −0.9
- percentage in activity change (as recorded in IC50 determination assay) ([1]; etoposide): 120%
- concentration sufficient for maximal inhibition of p65 nuclear translocation ([1]; etoposide stimulation, U2OS): 5 µM
- inhibition of etoposide-induced p65 nuclear translocation / NF-κB activation ([1]; etoposide, U2OS): inhibited NF-κB activation in response to etoposide stimulation; also recorded: inhibited the nuclear translocation of p65 upon etoposide stimulation in a concentration dependent manner
- effect on p65 nuclear translocation / NF-κB activation after TNFα stimulation [2]: did not interfere with p65 nuclear translocation rates
- ATM auto-phosphorylation and phosphorylation of the ATM substrates p53 and KAP1 [3, 5]: no effects
- phosphorylation state of p53bp1 [3, 5]: mild effects
- enzymatic activity of ATM ([3]; conclusion from auto-phosphorylation and substrate phosphorylation): not affected
- cell number compared to the DMSO/IR control ([4]; HEK293, 48 h after irradiation): significant effect on further reduction in cell number
- cell number in comparison to DMSO treated samples ([4]; HEK293, not irradiated): reduced the cell number
